Legend:
[1] = system: mitochondrial oxygen consumption; test: Mitochondrial (cyanide sensitive) respiration, Oroboros oxygraph; assay type: cell-based, human
Experimental: Lactate derived from the metabolism of ^13C6-D-glucose or ^13C5-glutamine was determined by comparing the CH3 group intensities of labeled and non-labeled lactate in NMR. Mitochondrial respiration was measured using an Oroboros 1 oxygraph system. Glycolysis was measured by monitoring the conversion of 5-^3H-Glucose to ^3H2O. Incorporation of ^14C into RNA ribose from U-^14C-labelled glucose was taken as glucose utilization in the pentose phosphate shunt. Enzymatic activities were determined in subcellular fractions as previously described^24.

PKM2 [2] = target: T1, PKM2 (Homo sapiens, UniProt P14618); test: Ultrafiltration of the PK M2-HMGB1 complex; assay type: binding; settings: 2 μM human PK M2 and 2 μM human HMGB1
T1 sequence (P14618 whole entry): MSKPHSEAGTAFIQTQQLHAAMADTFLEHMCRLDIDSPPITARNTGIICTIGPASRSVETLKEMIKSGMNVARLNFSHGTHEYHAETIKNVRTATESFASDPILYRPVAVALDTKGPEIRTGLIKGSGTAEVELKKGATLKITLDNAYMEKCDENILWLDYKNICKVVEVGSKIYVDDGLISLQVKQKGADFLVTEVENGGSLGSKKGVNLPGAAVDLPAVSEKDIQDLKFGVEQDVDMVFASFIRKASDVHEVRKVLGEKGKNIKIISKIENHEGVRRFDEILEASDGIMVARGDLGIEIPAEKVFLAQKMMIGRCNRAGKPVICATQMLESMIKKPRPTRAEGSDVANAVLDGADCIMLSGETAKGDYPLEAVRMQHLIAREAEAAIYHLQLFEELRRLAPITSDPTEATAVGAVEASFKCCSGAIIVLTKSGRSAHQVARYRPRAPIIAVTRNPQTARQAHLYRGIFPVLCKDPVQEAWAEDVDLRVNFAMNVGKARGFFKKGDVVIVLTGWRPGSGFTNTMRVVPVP
Experimental: Ultrafiltration of the PK M2-HMGB1 complex: equimolar amounts of HMGB1 and PKM2 were mixed in a final volume of 300 μl and filtrated (14000 g, 4° C.) to a final volume of 15 μl in an Amicon Ultra 0.5 ml 30k device (Merck-Millipore, Darmstadt, Germany). The retentate was adjusted to the original volume after centrifugation. Then filtrate and retentate were analyzed by Western Blot. For controls HMGB1 and PKM2 were also analyzed alone. Pure HMGB1 (2 μM) suited as a negative control.

SW480 xenograft tumor = test: Xenograft tumor growth in nude mice; assay type: in vivo, mouse; settings: 10 μg rhHMGB1 daily intraperitoneal for 2 weeks
Experimental: For animal studies six-week-old female and male athymic CD1 nude mice (Charles River, n=40) were injected subcutaneously with 5×10^6 SW480 or HT29 cells in 100 μl PBS in the right flank using a 30-gauge needle. Treatment was started when tumors were palpable. Daily intraperitoneal injections at the contralateral side for 2 weeks were done with 10 μg rhHMGB1 in 500 μl PBS or PBS only (control group) and/or 12.5 mg/kg/injection L-DON (Ovejera, A. A., Houchens, D. P., Catane, R., Sheridan, M. A. & Muggia, F. M. Efficacy of 6-diazo-5-oxo-L-norleucine and N-[N-gamma-glutamyl-6-diazo-5-oxo-norleucinyl]-6-diazo-5-oxo-norleucine against experimental tumors in conventional and nude mice. Cancer research 39, 3220-3224 (1979).). Tumor volume was measured by a calliper using the ellipsoid formula (length×width×height×½) as described (Tomayko, M. M. & Reynolds, C. P. Determination of subcutaneous tumor size in athymic (nude) mice. Cancer Chemother Pharmacol 24, 148-154 (1989).). After 2 weeks of treatment the animals were sacrificed.

PKM2 [3] = target: T1, PKM2; test: Immunoprecipitation with 125I-labeled HMGB1 (PKM2 pull-down); assay type: binding; parameters: endogenous in cells; settings: 125I-labeled HMGB1
Experimental: FIG. 6: Co-administration of HMGB1 and an activator (A left and right) or an inhibitor (B) of PMK2 has a synergistic cytotoxic effect, as determined in the crystal violet cytotoxicity assay (assays were performed in duplicate, * indicates p<0.05). (C) Immunoprecipitation with I125-labeled HMGB1 (PKM2 pull-down). HMGB1, like phosphotyrosine-peptides, binds close to the allosteric center of PKM2, leading to a competition in binding.

For “HMGB1: recombinant human HMGB1 protein (Sigma-Aldrich); High Mobility Group Box 1 polypeptide, human, SEQ ID NO: 4”, the “inhibition of mitochondrial oxygen consumption” value ([1]; HCT116 cells, HMGB1 80 nM, 24 h) was “pronounced”, the mitochondrial respiration ([1]; HT29 cells, HMGB1 80 nM, 24 h) was “only slightly reduced” and the “inhibition of mitochondrial oxygen consumption” value ([1]; SW480 cells, HMGB1 80 nM, 24 h) was “pronounced”. For the same substance, the mitochondrial oxygen consumption ([1]; colorectal cancer tissue slices, HMGB1 160 nM, 72 h) was “strongly decreased”, the “physical interaction with PK M2 in vitro” value (PKM2 [2]) was “physically interacted” and the xenograft tumor growth (SW480 xenograft tumor) was “inhibited”. For the same substance, the “binding to PKM2 in vivo (immunoprecipitating PKM2)” value (PKM2 [3]) was “specific binding”.

From patent US11274132B2, “Combined preparations of PKM2 modulators and HMGB1” (Ruprecht-Karls-Universität Heidelberg, priority 2015, dated 2022)
